Legend:
Type in all cases: biochemical
c-KIT = molecular target: T1, c-KIT (Homo sapiens, UniProt P10721); experiment: c-KIT recombinant enzyme kinase assay (AlphaScreen); conditions: 100 ATP, 8 pt
T1 construct: purchased Millipore 14-559K
How it was run: (§1)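 IC50 values are derived from reduced AlphaScreen signal as inhibitors block tyrosine phosphorylation of a biotinylated poly(Glu4-Tyr) peptide (30 nM) by recombinant kinase. FLT3 variants are run at 10 μM ATP, c-KIT at 100 μM.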

FLT3-D835Y = molecular target: T2, FLT3-D835Y (Homo sapiens, UniProt P36888, D835Y); experiment: FLT3-D835Y recombinant enzyme kinase assay (AlphaScreen); conditions: 8 pt, GMean
T2 construct: purchased Invitrogen PV3967
T2 sequence (P36888 27-993 D835Y): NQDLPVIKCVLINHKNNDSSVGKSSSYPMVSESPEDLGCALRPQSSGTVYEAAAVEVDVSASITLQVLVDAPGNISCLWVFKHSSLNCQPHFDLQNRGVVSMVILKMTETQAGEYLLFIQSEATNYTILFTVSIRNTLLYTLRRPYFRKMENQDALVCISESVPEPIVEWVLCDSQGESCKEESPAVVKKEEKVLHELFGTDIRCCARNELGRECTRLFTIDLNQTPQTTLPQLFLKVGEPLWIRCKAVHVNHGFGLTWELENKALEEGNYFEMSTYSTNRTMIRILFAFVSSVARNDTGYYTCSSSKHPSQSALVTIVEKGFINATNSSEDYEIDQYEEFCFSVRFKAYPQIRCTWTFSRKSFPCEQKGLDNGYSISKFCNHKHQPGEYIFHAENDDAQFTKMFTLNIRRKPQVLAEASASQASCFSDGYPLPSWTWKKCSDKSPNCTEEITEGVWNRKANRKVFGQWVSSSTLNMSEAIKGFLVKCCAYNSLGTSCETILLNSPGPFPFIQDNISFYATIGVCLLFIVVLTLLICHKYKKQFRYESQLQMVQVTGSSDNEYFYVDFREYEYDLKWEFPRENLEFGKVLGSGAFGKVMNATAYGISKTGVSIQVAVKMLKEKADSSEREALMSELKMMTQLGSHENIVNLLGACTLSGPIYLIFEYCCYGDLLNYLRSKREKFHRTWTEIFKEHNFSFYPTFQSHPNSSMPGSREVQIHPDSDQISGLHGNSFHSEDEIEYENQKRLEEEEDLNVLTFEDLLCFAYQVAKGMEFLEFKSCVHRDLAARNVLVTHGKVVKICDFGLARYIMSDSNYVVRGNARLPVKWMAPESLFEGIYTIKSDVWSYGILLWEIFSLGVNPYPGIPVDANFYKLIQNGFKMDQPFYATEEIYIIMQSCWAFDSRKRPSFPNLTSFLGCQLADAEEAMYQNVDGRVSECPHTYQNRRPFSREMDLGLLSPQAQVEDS
How it was run: as §1

FLT3-ITD = molecular target: T3, FLT3-ITD (Homo sapiens, UniProt P36888); experiment: FLT3-ITD recombinant enzyme kinase assay (AlphaScreen); conditions: 8 pt; read-out: FLT3_ITD 8 pt: IC50
T3 sequence (P36888 1-993): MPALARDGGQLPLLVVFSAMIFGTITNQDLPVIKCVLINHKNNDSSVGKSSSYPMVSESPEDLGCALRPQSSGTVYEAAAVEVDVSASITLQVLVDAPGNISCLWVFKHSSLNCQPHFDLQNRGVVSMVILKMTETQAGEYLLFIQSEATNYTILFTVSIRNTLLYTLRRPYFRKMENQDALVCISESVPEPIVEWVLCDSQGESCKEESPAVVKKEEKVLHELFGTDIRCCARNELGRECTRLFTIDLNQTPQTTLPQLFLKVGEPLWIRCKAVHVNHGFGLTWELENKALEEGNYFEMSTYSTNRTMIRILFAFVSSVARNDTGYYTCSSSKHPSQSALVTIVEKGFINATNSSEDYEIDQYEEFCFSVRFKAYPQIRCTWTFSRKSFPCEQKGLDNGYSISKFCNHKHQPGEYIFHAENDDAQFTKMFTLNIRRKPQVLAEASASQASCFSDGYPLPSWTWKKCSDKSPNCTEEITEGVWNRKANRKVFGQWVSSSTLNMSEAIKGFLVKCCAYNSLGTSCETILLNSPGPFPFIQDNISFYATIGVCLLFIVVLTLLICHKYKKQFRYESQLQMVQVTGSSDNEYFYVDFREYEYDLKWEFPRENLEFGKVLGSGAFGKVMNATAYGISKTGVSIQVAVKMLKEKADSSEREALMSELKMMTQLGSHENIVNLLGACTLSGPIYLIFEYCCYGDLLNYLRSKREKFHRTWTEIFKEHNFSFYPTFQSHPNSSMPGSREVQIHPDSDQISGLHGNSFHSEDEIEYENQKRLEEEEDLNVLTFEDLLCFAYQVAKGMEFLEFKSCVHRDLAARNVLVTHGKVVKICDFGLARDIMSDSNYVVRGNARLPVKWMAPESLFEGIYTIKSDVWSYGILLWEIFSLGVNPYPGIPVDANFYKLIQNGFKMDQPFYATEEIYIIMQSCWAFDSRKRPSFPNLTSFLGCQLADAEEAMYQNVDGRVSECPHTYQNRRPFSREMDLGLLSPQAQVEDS
How it was run: as §1

T1 sequence (P10721 26-976): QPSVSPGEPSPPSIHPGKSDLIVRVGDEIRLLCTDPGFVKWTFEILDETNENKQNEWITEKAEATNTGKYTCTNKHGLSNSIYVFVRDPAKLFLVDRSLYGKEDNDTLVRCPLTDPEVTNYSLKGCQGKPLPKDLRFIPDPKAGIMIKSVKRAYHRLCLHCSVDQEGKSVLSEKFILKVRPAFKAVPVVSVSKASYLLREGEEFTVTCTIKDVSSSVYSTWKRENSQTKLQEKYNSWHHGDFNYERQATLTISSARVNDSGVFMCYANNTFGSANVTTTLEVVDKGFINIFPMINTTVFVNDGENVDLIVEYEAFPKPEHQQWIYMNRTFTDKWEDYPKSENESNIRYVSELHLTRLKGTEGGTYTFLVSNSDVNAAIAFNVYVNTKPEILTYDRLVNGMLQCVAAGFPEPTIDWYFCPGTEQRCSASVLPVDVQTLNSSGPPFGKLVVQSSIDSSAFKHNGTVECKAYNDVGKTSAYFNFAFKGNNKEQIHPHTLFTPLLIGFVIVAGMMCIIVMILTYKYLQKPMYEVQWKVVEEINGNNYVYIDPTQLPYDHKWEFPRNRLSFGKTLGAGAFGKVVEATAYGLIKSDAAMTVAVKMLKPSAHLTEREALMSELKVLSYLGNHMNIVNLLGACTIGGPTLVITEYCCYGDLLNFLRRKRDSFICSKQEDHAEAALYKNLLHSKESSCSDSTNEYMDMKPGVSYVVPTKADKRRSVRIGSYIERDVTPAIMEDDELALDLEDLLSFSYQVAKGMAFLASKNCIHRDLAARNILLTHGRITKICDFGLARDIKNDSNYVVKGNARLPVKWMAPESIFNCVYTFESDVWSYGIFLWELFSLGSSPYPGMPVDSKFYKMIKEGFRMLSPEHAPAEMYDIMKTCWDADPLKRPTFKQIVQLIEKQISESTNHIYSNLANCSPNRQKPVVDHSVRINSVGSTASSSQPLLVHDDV

| SMILES | IC50 (c-KIT) | IC50 (FLT3-D835Y) | IC50 (FLT3-ITD) |
| --- | --- | --- | --- |
| Cn1cc(Nc2ncc(-c3ccc(CC(=O)Nc4cnnc(Cl)c4)cc3)cn2)cn1 [Compound P-0151, N-(6-chloropyridazin-4-yl)-2-[4-[2-[(1-methylpyrazol-4-yl)amino]pyrimidin-5-yl]phenyl]acetamide] | 0.0001 to 10 µM | 0.0001 to 10 µM | 0.0001 to 10 µM |
| Cn1cc(Nc2ncc(-c3ccc(CC(=O)Nc4ccnc(S(C)(=O)=O)c4)cc3)cn2)cn1 [Compound P-0154, 2-[4-[2-[(1-methylpyrazol-4-yl)amino]pyrimidin-5-yl]phenyl]-N-(2-methylsulfonyl-4-pyridyl)acetamide] | 0.0001 to 10 µM | 0.0001 to 10 µM | 0.0001 to 10 µM |
| Cn1cc(Nc2ncc(-c3ccc(CC(=O)Nc4cccc(S(C)(=O)=O)c4)cc3)cn2)cn1 [Compound P-0155, 2-[4-[2-[(1-methylpyrazol-4-yl)amino]pyrimidin-5-yl]phenyl]-N-(3-methylsulfonylphenyl)acetamide] | 0.0001 to 10 µM | 0.0001 to 10 µM | 0.0001 to 10 µM |
| Cn1cc(Nc2ncc(-c3ccc(CC(=O)Nc4ccc(S(C)(=O)=O)cc4)cc3)cn2)cn1 [Compound P-0156, 2-[4-[2-[(1-methylpyrazol-4-yl)amino]pyrimidin-5-yl]phenyl]-N-(4-methylsulfonylphenyl)acetamide] | 0.0001 to 10 µM | 0.0001 to 10 µM | 0.0001 to 10 µM |
| Cn1cc(Nc2ncc(-c3ccc(CC(=O)Nc4cccc(OC(F)(F)F)c4)cc3)cn2)cn1 [Compound P-0157, 2-[4-[2-[(1-methylpyrazol-4-yl)amino]pyrimidin-5-yl]phenyl]-N-[3-(trifluoromethoxy)phenyl]acetamide] | 0.0001 to 10 µM | 0.0001 to 10 µM | 0.0001 to 10 µM |
| Cn1cc(Nc2ncc(-c3ccc(CC(=O)Nc4cccc(C(C)(C)C#N)c4)cc3)cn2)cn1 [Compound P-0158, N-[3-(1-cyano-1-methyl-ethyl)phenyl]-2-[4-[2-[(1-methylpyrazol-4-yl)amino]pyrimidin-5-yl]phenyl]acetamide] | 0.0001 to 10 µM | 0.0001 to 10 µM | 0.0001 to 10 µM |
| Cn1cnc(Nc2ncc(-c3ccc(CC(=O)Nc4cnc(F)c(C(C)(F)F)c4)cc3F)cn2)c1 [Compound P-0170, N-[5-(1,1-difluoroethyl)-6-fluoro-3-pyridyl]-2-[3-fluoro-4-[2-[(1-methylimidazol-4-yl)amino]pyrimidin-5-yl]phenyl]acetamide] | 0.0001 to 10 µM | 0.0001 to 10 µM | 0.0001 to 10 µM |
| Cc1n[nH]c2ncc(-c3cc(F)c(CC(=O)Nc4cncc(C(F)(F)F)c4)cc3F)cc12 [Compound P-0173, 2-[2,5-difluoro-4-(3-methyl-1H-pyrazolo[3,4-b]pyridin-5-yl)phenyl]-N-[5-(trifluoromethyl)-3-pyridyl]acetamide] | 0.0001 to 10 µM | 0.0001 to 10 µM | 0.0001 to 10 µM |
| COc1ncc(NC(=O)Cc2ccc(-c3cnc4[nH]nc(C)c4c3)c(F)c2)cc1C(F)(F)F [Compound P-0174, 2-[3-fluoro-4-(3-methyl-1H-pyrazolo[3,4-b]pyridin-5-yl)phenyl]-N-[6-methoxy-5-(trifluoromethyl)-3-pyridyl]acetamide] | 0.0001 to 10 µM | 0.0001 to 10 µM | 0.0001 to 10 µM |
| Cc1ncc(NC(=O)Cc2cc(F)c(-c3cnc4[nH]nc(C)c4c3)cc2F)cc1C(F)(F)F [Compound P-0175, 2-(2,5-difluoro-4-(3-methyl-1H-pyrazolo[3,4-b]pyridin-5-yl)phenyl)-N-(6-methyl-5-(trifluoromethyl)pyridin-3-yl)acetamide] | 0.0001 to 10 µM | 0.0001 to 10 µM | 0.0001 to 10 µM |

The next lines start with the values.

| IC50 (c-KIT) | IC50 (FLT3-D835Y) | IC50 (FLT3-ITD) | SMILES |
| --- | --- | --- | --- |
| 0.0001 to 10 µM | 0.0001 to 10 µM | 0.0001 to 10 µM | COc1ncc(NC(=O)Cc2ccc(-c3cnc(Nc4cn(C)cn4)nc3)cc2)cc1C(F)(F)F [Compound P-0149, N-[6-methoxy-5-(trifluoromethyl)-3-pyridyl]-2-[4-[2-[(1-methylimidazol-4-yl)amino]pyrimidin-5-yl]phenyl]acetamide] |
| 0.0001 to 10 µM | 0.0001 to 10 µM | 0.0001 to 10 µM | Cc1ncc(NC(=O)Cc2ccc(-c3cnc(Nc4cn(C)cn4)nc3)cc2)cc1C(F)(F)F [Compound P-0150, 2-[4-[2-[(1-methylimidazol-4-yl)amino]pyrimidin-5-yl]phenyl]-N-[6-methyl-5-(trifluoromethyl)-3-pyridyl]acetamide] |
| 0.0001 to 10 µM | 0.0001 to 10 µM | 0.0001 to 10 µM | Cn1cc(Nc2ncc(-c3ccc(CC(=O)Nc4cccc(C(F)(F)F)n4)cc3)cn2)cn1 [Compound P-0152, 2-[4-[2-[(1-methylpyrazol-4-yl)amino]pyrimidin-5-yl]phenyl]-N-[6-(trifluoromethyl)-2-pyridyl]acetamide] |
| 0.0001 to 10 µM | 0.0001 to 10 µM | 0.0001 to 10 µM | Cn1cc(Nc2ncc(-c3ccc(CC(=O)NCc4cncc(C(F)(F)F)c4)cc3)cn2)cn1 [Compound P-0161, 2-[4-[2-[(1-methylpyrazol-4-yl)amino]pyrimidin-5-yl]phenyl]-N-[[5-(trifluoromethyl)-3-pyridyl]methyl]acetamide] |
| 0.0001 to 10 µM | 0.0001 to 10 µM | 0.0001 to 10 µM | CCn1cc(Nc2ncc(-c3ccc(CC(=O)Nc4cnc(Cl)c(C(F)(F)F)c4)cc3)cn2)cn1 [Compound P-0165, N-[6-chloro-5-(trifluoromethyl)-3-pyridyl]-2-[4-[2-[(1-ethylpyrazol-4-yl)amino]pyrimidin-5-yl]phenyl]acetamide] |
| 0.0001 to 10 µM | 0.0001 to 10 µM | 0.0001 to 10 µM | CCn1cc(Nc2ncc(-c3ccc(CC(=O)Nc4cncc(C(F)(F)F)c4)cc3)cn2)cn1 [Compound P-0166, 2-[4-[2-[(1-ethylpyrazol-4-yl)amino]pyrimidin-5-yl]phenyl]-N-[5-(trifluoromethyl)-3-pyridyl]acetamide] |
| 0.0001 to 10 µM | 0.0001 to 10 µM | 0.0001 to 10 µM | Cn1cnc(Nc2ncc(-c3ccc(CC(=O)Nc4cncc(C(F)(F)F)c4)cc3)cn2)c1 [Compound P-0167] |
| 0.0001 to 10 µM | 0.0001 to 10 µM | 0.0001 to 10 µM | Cn1cnc(Nc2ncc(-c3ccc(CC(=O)Nc4cnc(F)c(C(C)(F)F)c4)cc3)cn2)c1 [Compound P-0168, N-[5-(1,1-difluoroethyl)-6-fluoro-3-pyridyl]-2-[4-[2-[(1-methylimidazol-4-yl)amino]pyrimidin-5-yl]phenyl]acetamide] |
| 0.0001 to 10 µM | 0.0001 to 10 µM | 0.0001 to 10 µM | Cn1cnc(Nc2ncc(-c3ccc(CC(=O)Nc4cc(C(C)(F)F)ccn4)cc3)cn2)c1 [Compound P-0169, N-[4-(1,1-difluoroethyl)-2-pyridyl]-2-[4-[2-[(1-methylimidazol-4-yl)amino]pyrimidin-5-yl]phenyl]acetamide] |
